Assay results from US12522580B2, “Fluorine-containing pyrimidine compounds, harmful fungus control agent, and method for producing fluorine-containing pyrimidine compounds” (UNIMATEC CO., LTD., priority 2021, dated 2026).

Key:
[1] = tested on: Gray mold germs (Botrytis cinerea, strain 2018105); assay: Evaluation test for gray mold (mycelial growth on PDA medium); format: cell-based; settings: final concentration 500 ppm in PDA medium; mycelia diameter after two days at 27° C.; average of 3
Description: The fluorine-containing pyrimidine compound prepared in Example 1, 2, 3, 4, 12 or 16 was dissolved in DMSO and diluted to a concentration of 50000 ppm. To 3 ml of a dissolved PDA medium, 30 μL of diluted DMSO solution each was added and stirred with a pipette. The mixture was placed in a well of a 6-well plate and allowed to solidify (final concentration: 500 ppm, repeated 3 times each). Gray mold germs (Botrytis cinerea, strain 2018105) grown in a PDA medium was cut out together with the medium with a biopsy punch having a diameter of 0.4 cm, and placed on the center of the PDA medium in the 6-well plate containing the DMSO solution so as to be grown at 27° C. After two days, the diameters of mycelia were measured and the control value was calculated. The control value was calculated according to the following formula. In the formula described below, “untreated” represents PDA medium to which only DMSO was added as the test solution. [formula]

[2] = tested on: cucumber powdery mildew; assay: Evaluation test for powdery mildew of cucumbers (cucumber leaf disc); format: in vivo; settings: blotch area after 12 days, 25° C.
Description: A fluorine-containing pyrimidine compound prepared in Examples 12, 13 or 15 was dissolved in acetone and diluted to a concentration of 500 ppm. Subsequently, a cucumber leaf disc (diameter 20 mm) was placed in a diluted acetone solution and completely wetted. The cucumber leaf disc was then placed so that the back surface of the cucumber leaf disc contacted a separately prepared plain agar medium, and air-dried. After air-drying, a cucumber powdery mildew spore suspension was evenly sprayed on the cucumber leaf disc and air-dried. The cucumber leaf disc was then allowed to stand in an incubator (25° C., illuminated for 12 hours), and after 12 days, the blotch area was examined to calculate the control value. The control value was calculated according to the following formula. In the following formula, “untreated” means that the cucumber leaf disc was wetted with only acetone as the test solution, and “untreated section” represents the corresponding section. A fluorine-containing pyrimidine compound prepared in Examples 12, 13 or 15 was dissolved in acetone and diluted to a concentration of 100 ppm. Subsequently, a cucumber leaf disc (diameter 20 mm) was placed in a diluted acetone solution and completely wetted. The cucumber leaf disc was placed so that the back surface of the cucumber leaf disc contacted a separately prepared plain agar medium, and air-dried. After air-drying, a cucumber powdery mildew spore suspension was evenly prayed on the cucumber leaf disc and air-dried. The cucumber leaf disc was then allowed to stand in an incubator (25° C., illuminated for 12 hours), and after 12 days, the blotch area was examined to calculate the control value. The control value was calculated according to the following formula. In the following formula, “untreated” means that the cucumber leaf disc was wetted with only acetone as the test solution, and “untreated section” represents the corresponding section. [formula] (Evaluation Test for Gray Mold (500 ppm))

Row | Compound | Control value [1] | Control value ([2]; 100 ppm in acetone) | Control value ([2]; 500 ppm in acetone)
1 | COc1nc(-c2ccccn2)nc(Nc2ccccc2)c1C(F)(F)F [Example 1, 6-methoxy-N-phenyl-2-(2-pyridyl)-5-(trifluoromethyl)-4-pyrimidinamine] | 90.5 |  | 
2 | COc1nc(-c2ccccn2)nc(Nc2cccc(C)c2)c1C(F)(F)F [Example 2, 6-methoxy-N-(3-methylphenyl)-2-(2-pyridyl)-5-(trifluoromethyl)-4-pyrimidinamine] | 86.8 |  | 
3 | CCCCc1ccc(Nc2nc(-c3ccccn3)nc(OC)c2C(F)(F)F)cc1 [Example 3, N-(4-butylphenyl)-6-methoxy-2-(2-pyridyl)-5-(trifluoromethyl)-4-pyrimidinamine] | 76.9 |  | 
4 | COc1nc(-c2ccccn2)nc(Nc2ccc(C)c(C)c2)c1C(F)(F)F [Example 4, 6-methoxy-N-(3,4-dimethylphenyl)-2-(2-pyridyl)-5-(trifluoromethyl)-4-pyrimidinamine] | 86.8 |  | 
5 | COc1nc(-c2ccccn2)nc(Nc2ccc(C)cc2C)c1C(F)(F)F [Example 12, 6-methoxy-N-(2,4-dimethylphenyl)-2-(2-pyridyl)-5-(trifluoromethyl)-4-pyrimidinamine] | 94.3 | 91.8 | 100.0
6 | COc1nc(-c2ccccn2)nc(Nc2ccc(Cl)cc2)c1C(F)(F)F [Example 13, N-(4-chlorophenyl)-6-methoxy-2-(2-pyridyl)-5-(trifluoromethyl)-4-pyrimidinamine] |  | 80.0 | 98.8
7 | COc1nc(-c2ccccn2)nc(Nc2ccc(C)cc2)c1C(F)(F)F [Example 15, 6-methoxy-N-(4-methylphenyl)-2-(2-pyridyl)-5-(trifluoromethyl)-4-pyrimidinamine] |  | 100.0 | 100.0
8 | FC(F)(F)c1c(Cl)nc(-c2ccccn2)nc1Nc1ccccc1 [Example 16, 6-chloro-N-phenyl-2-(2-pyridyl)-5-(trifluoromethyl)-4-pyrimidinamine] | 92.4 |  | 
